Holding throughout (format): biochemical
One assay concerns the target T1, MMP-1 (Homo sapiens, UniProt P03956).
T1 sequence (P03956 100-469): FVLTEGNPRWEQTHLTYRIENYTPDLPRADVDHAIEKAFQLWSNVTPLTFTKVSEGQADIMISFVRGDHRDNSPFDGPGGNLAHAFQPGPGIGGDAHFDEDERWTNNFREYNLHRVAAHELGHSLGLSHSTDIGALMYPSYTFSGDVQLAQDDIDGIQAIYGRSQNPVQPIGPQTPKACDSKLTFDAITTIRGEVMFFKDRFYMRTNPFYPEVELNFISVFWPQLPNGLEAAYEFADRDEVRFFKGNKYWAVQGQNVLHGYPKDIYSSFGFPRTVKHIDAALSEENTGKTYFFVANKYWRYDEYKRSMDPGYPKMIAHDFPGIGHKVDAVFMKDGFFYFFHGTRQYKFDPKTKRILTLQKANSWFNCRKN
The experiment in a line: MMP-1 inhibition, thiopeptide or fluorescent peptide substrate test procedure. The settings on record: for IC50: in vitro enzyme inhibition. As to the method: (§1) Test Procedures for Measuring MMP-1, MMP-9, and MMP-13 Inhibition
(§2) These standard pharmacological test procedures are based on the cleavage of a thiopeptide substrates such as Ac-Pro-Leu-Gly(2-mercapto-4-methyl-pentanoyl)-Leu-Gly-OEt by the matrix metalloproteinases MMP-1, MMP-13 (collagenases) or MMP-9 (gelatinase), which results in the release of a substrate product that reacts calorimetrically with DTNB (5,5′-dithiobis(2-nitro-benzoic acid)). The enzyme activity is measured by the rate of the color increase. The thiopeptide substrate is made up fresh as a 20 mM stock in 100% DMSO and the DTNB is dissolved in 100% DMSO as a 100 mM stock and stored in the dark at room temperature. Both the substrate and DTNB are diluted together to 1 mM with substrate buffer (50 mM HEPES pH 7.5, 5 mM CaCl2) before use. The stock of enzyme is diluted with buffer (50 mM HEPES, pH 7.5, 5 mM CaCl2, 0.02% Brij) to the desired final concentration. The buffer, enzyme, vehicle or inhibitor, and DTNB/substrate are added in this order to a 96 well plate (total reaction volume of 200 μl) and the increase in color is monitored spectrophotometrically for 5 minutes at 405 nm on a plate reader and the increase in color over time is plotted as a linear line.
(§3) Alternatively, a fluorescent peptide substrate is used. In this test procedure, the peptide substrate contains a fluorescent group and a quenching group. Upon cleavage of the substrate by an MMP, the fluorescence that is generated is quantitated on the fluorescence plate reader. The assay is run in HCBC assay buffer (50 mM HEPES, pH 7.0, 5 mM Ca^+2, 0.02% Brij, 0.5% Cysteine), with human recombinant MMP-1, MMP-9, or MMP-13. The substrate is dissolved in methanol and stored frozen in 1 mM aliquots. For the assay, substrate and enzymes are diluted in HCBC buffer to the desired concentrations. Compounds are added to the 96 well plate containing enzyme and the reaction is started by the addition of substrate. The reaction is read (excitation 340 nm, emission 444 nm) for 10 min. and the increase in fluorescence over time is plotted as a linear line.
(§4) For either the thiopeptide or fluorescent peptide test procedures, the slope of the line is calculated and represents the reaction rate. The linearity of the reaction rate is confirmed (r^2>0.85). The mean (x±sem) of the control rate is calculated and compared for statistical significance (p<0.05) with drug-treated rates using Dunnett's multiple comparison test. Dose-response relationships can be generated using multiple doses of drug and IC50 values with 95% Cl are estimated using linear regression.

A further assay addresses MMP-9 (Homo sapiens, UniProt P14780). Description: MMP-9 inhibition, thiopeptide or fluorescent peptide substrate test procedure. As to conditions: in vitro enzyme inhibition. The procedure: as §1, §2, §3, §4
The target of another assay is MMP-13 (Homo sapiens, UniProt P45452). The experiment in a line: MMP-13 inhibition, thiopeptide or fluorescent peptide substrate test procedure. As to conditions: in vitro enzyme inhibition. The procedure:
as §1, §2, §3, §4

The target of assay [1] is TNF-α converting enzyme (TACE) (Homo sapiens, UniProt P78536). The experiment in a line: TACE inhibition, fluorescent peptidyl substrate test procedure. As to conditions: in vitro enzyme inhibition. As to the method:
Test Procedure for Measuring TACE Inhibition
Using 96-well black microtiter plates, each well receives a solution composed of 10 μL TACE (final concentration 1 μg/mL), 70 μL Tris buffer, pH 7.4 containing 10% glycerol (final concentration 10 mM), and 10 μL of test compound solution in DMSO (final concentration 1 μM, DMSO concentration <1%) and incubated for 10 minutes at room temperature. The reaction is initiated by addition of a fluorescent peptidyl substrate (final concentration 100 μM) to each well and then shaking on a shaker for 5 sec.
The reaction is read (excitation 340 nm, emission 420 nm) for 10 min. and the increase in fluorescence over time is plotted as a linear line. The slope of the line is calculated and represents the reaction rate.
The mean (x±sem) of the control rate is calculated and compared for statistical significance (p<0.05) with drug-treated rates using Dunnett's multiple comparison test.

Chain of TNF-α converting enzyme (TACE) (P78536 215-824, species assumed): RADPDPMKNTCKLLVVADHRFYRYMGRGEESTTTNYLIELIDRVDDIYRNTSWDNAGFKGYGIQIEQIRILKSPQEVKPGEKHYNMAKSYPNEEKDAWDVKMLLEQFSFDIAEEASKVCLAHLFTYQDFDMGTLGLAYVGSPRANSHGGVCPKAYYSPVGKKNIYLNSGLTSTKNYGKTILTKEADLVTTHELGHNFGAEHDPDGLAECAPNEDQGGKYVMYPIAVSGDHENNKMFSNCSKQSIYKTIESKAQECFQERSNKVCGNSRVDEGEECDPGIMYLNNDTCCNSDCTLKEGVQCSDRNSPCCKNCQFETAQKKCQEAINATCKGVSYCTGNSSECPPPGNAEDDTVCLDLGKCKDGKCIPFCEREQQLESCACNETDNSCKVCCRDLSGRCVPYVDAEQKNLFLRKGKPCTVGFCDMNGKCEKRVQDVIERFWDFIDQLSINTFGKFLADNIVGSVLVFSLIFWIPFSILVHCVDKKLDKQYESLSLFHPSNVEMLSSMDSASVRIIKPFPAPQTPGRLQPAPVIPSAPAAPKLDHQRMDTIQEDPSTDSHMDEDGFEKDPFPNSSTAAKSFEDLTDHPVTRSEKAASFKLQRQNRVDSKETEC
Chain of MMP-9 (P14780 94-707): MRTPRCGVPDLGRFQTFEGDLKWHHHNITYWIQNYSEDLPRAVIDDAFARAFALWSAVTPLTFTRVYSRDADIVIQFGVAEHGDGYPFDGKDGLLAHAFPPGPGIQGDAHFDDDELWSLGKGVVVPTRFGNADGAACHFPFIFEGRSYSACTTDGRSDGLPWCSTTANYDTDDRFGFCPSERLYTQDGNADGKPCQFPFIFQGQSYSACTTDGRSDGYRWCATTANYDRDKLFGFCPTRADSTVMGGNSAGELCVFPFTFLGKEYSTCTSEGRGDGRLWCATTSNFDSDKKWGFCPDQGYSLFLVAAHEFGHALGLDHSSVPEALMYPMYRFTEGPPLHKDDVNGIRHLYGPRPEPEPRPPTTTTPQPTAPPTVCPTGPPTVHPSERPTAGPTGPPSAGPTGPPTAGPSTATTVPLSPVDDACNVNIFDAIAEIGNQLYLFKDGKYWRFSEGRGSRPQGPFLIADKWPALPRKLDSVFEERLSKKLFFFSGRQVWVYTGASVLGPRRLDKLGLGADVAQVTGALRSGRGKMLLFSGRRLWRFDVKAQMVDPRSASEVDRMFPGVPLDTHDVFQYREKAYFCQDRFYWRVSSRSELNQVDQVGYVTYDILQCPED

For `CC=C=CCOc1ccc(S(=O)(=O)NC(C(=O)NO)C(C)C)cc1` (centres unmarked) [Example 19, N-Hydroxy-3-methyl-2-({[4-(2,3-pentadienyloxy)phenyl]sulfonyl}amino)butanamide], the IC50 – broadly, the concentration at which inhibition is half-maximal – against MMP-1 was 8810 nM; against MMP-9, 21 nM; on MMP-13 it was 25 nM; in assay [1], 62 nM.
On to `C=C=CCOc1ccc(S(=O)(=O)N(C)C(C(=O)NO)C(C)C)cc1` (centres unmarked) [Example 16, 2-[{[4-(2,3-Butadienyloxy)phenyl]sulfonyl}(methyl)amino]-N-hydroxy-3-methylbutanamide], for which the results for the IC50 (against MMP-13; in assay [1]) were 3 nM and 36 nM, respectively.
On to `C=C=CCOc1ccc(S(=O)(=O)N2Cc3ccccc3N(C(C)=O)CC2C(=O)NO)cc1` (centres unmarked) [Example 45, 1-Acetyl-4-{[4-(2,3-butadienyloxy)phenyl]sulfonyl}-N-hydroxy-2,3,4,5-tetrahydro-1H-1,4-benzodiazepine-3-carboxamide], for which the IC50 against MMP-1 was 2350 nM; on MMP-9, 9 nM; at MMP-13, 7 nM; in assay [1] it was 71 nM.
In the case of `C=C=CCOc1ccc(S(=O)(=O)N2Cc3ccccc3N(C(=O)c3ccccc3)CC2C(=O)NO)cc1` (centres unmarked) [Example 46, 1-Benzoyl-4-(4-buta-2,3-dienyloxy-benzenesulfonyl)-2,3,4,5-tetrahydro-1H-benzo[e][1,4]diazepine-3-carboxylic acid hydroxyamide], the IC50 on MMP-1 was determined as 675 nM; at MMP-13 it was 4 nM.
Regarding `C=C=CCOc1ccc(S(=O)(=O)N2CCSC(C)(C)[C@@H]2C(=O)NO)cc1` [Example 26, (3S)-4-{[4-(2,3-Butadienyloxy)phenyl]sulfonyl}-N-hydroxy-2,2-dimethyl-3-thiomorpholinecarboxamide], the IC50 on MMP-1 amounted to 50 nM; against MMP-13 it was 4 nM; in assay [1], 116 nM.
In the case of `CC=C=CCOc1ccc(S(=O)(=O)N2Cc3ccccc3N(C(=O)c3ccccc3)CC2C(=O)NO)cc1` (centres unmarked) [Example 47, 1-Benzoyl-N-hydroxy-4-{[4-(2,3-pentadienyloxy)phenyl]sulfonyl}-2,3,4,5-tetrahydro-1H-1,4-benzodiazepine-3-carboxamide], the inhibition at 1 µM at MMP-1 (1 μM, read-out: MMP-1 % (inhibition) at single concentration) was determined as 32%. In addition, the IC50 against MMP-13 is 5 nM; in assay [1], 1400 nM.
Take `C=C=CCOc1ccc(S(=O)(=O)NC(C(=O)NO)C(C)C)cc1` (centres unmarked) [Example 13, 2-({[4-(2,3-Butadienyloxy)phenyl]sulfonyl}amino)-N-hydroxy-3-methylbutanamide]: the IC50 was 2670 nM on MMP-1, 36 nM against MMP-9, 21 nM at MMP-13 and 51 nM in assay [1].
As for `CC=C=CCOc1ccc(S(=O)(=O)N(C)C(C(=O)NO)C(C)C)cc1` (centres unmarked) [Example 22, N-Hydroxy-3-methyl-2-(methyl{[4-(2,3-pentadienyloxy)phenyl]sulfonyl}amino)butanamide], the IC50 on MMP-1 was found to be 877 nM; at MMP-9, 4 nM; against MMP-13, 6 nM; in assay [1], 48 nM.

Source of the values: US7282496B2, “Allenic aryl sulfonamide hydroxamic acids as matrix metalloproteinase and TACE inhibitors” (Wyeth Holdings Corporation, priority 2001, dated 2007).
